# Reference: PubChem BioAssay AID1645865 (Buhrlage Lab, Dana-Farber Cancer Institute and Novartis …, 2021)
# Active and inactive are the calls of the source.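 Rule for the calls: active = maximal inhibition of the USP30 enzyme reaching 30% or more across the dose series; inactive = the rest.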
# Molecular target: Ubiquitin carboxyl-terminal hydrolase 30 (Homo sapiens) (UniProt Q70CQ3)
# Assay: inhibitors of ubiquitin-specific protease 30 deubiquitylating enzyme, concentration dependence, in vitro biochemical, validation of primary hits (AID 1645865)
# Conditions: purified USP30, Ub-rhodamine cleavage, fluorescence, 2 h
# Sequence of Ubiquitin carboxyl-terminal hydrolase 30 (Homo sapiens) (Q70CQ3 whole entry, looked up): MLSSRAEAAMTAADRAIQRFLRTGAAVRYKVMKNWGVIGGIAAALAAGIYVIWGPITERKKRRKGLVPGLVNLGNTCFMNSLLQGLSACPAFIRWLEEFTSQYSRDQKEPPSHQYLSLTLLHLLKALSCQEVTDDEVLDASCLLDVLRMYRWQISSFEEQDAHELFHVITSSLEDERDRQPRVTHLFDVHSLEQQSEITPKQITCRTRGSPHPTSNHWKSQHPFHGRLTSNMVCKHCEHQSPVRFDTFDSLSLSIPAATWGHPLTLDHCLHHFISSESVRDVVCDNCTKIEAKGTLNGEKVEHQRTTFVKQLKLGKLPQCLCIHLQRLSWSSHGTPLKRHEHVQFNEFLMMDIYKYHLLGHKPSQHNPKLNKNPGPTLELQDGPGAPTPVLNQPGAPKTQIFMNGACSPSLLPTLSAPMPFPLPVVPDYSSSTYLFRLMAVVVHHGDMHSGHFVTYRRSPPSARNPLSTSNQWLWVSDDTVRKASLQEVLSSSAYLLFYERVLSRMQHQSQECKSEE
row,SMILES,IC50
1,O=C(Cn1c(=O)n(CCC(=O)N2CC=C(c3ccccc3)CC2)c(=O)c2ccccc21)NCc1ccco1,> 50 µM (inactive)
2,CC(C)c1cc(NCc2ccccc2)n2nc(-c3cccnc3)nc2n1,19.7 µM
3,CN(C(=O)CSc1nnc(-c2cc3ccccc3n2C)o1)c1ccccc1,> 50 µM (inactive)
4,COc1ccc(Cn2cnc3c([nH]c4ccc(Br)cc43)c2=O)cc1,0.833 µM
5,O=C(CNc1ccc(F)c(Cl)c1)Nc1ccc2c(c1)OCCO2,> 50 µM (inactive)
6,CC1CC(=O)Nc2ccccc2N1S(=O)(=O)c1ccc(C#N)cc1 (stereo not drawn),> 50 µM (inactive)
7,CC(=O)c1sc(NC(=O)c2ccccc2-c2ccc(C(F)(F)F)cc2)nc1C,11 µM
8,Cc1ccc(NC(=O)Cn2c(Nc3cccc(C)c3)nc(C)cc2=O)cc1,26.6 µM
9,COc1cc2c(oc(=O)c3cc(C)cc(OC)c32)c2c([C@@H]3OC(C)[C@@H](O)[C@@](C)(O)C3O)ccc(O)c12 (stereo partly drawn),> 50 µM (inactive)
10,CCOC(=O)c1sc2nc(CC(=O)OC)nc(NCc3ccco3)c2c1C,> 50 µM (inactive)
11,O=C(/C=C/c1ccco1)c1cccc([N+](=O)[O-])c1,40.1 µM
12,COc1ccc(-c2[nH]c3ccccc3c2SCCNC(=O)c2ccc(S(=O)(=O)N3CCOCC3)cc2)cc1,28.7 µM
13,Cc1cc(SCc2ncon2)c(C)cc1Cl,> 50 µM (inactive)
14,Cc1cc(O)cc2cc3c(c(O)c12)C(=O)CCC3O (stereo not drawn),> 50 µM (inactive)
15,O=C(/C=C/C=C/C=C/C1CCCCC1)NC1=C[C@@](O)(/C=C/C=C/C=C/C(=O)NC2=C(O)CCC2=O)[C@@H]2O[C@@H]2C1=O,> 50 µM (inactive)
16,CC[C@@]1(O)C[C@H](OC2CC(N(C)C)C(OC3CC(O)C(OC4CCC(=O)C(C)O4)C(C)O3)C(C)O2)c2c(cc3c(c2O)C(=O)c2c(O)ccc(O)c2C3=O)[C@H]1C(=O)OC (stereo partly drawn),> 50 µM (inactive)
17,COC(=O)c1cc(C#N)c(NCc2ccccc2)nc1C,10.1 µM
18,O=C(Nc1ccc(NS(=O)(=O)c2ccc3c4c(cccc24)CC3)cc1)c1ccccc1,> 50 µM (inactive)
19,COC(=O)c1sccc1NC(=O)COc1ccsc1C(=O)OC,27.9 µM

# Other lines, results leading:
row,IC50,SMILES
1,39.3 µM,COc1ccc(-c2cc(-c3nnc4n3CCCCC4)n(-c3ccccc3)n2)cc1
2,19.3 µM,O=C(Cn1cncc(C(=O)NC2CCCC2)c1=O)Nc1cccc(F)c1
3,3.78 µM,NC(=O)c1nc(-c2cccc(F)c2)nc2c1[nH]c(=O)n2C1CCCCC1
4,> 50 µM (inactive),O=C(c1cc(Cl)ccc1Cl)N1CCN(c2ccc3nnc(-c4ccco4)n3n2)CC1
5,> 50 µM (inactive),CC(=O)c1ccc(NC(=O)C2CCN(c3cncnc3N3CCCC3)CC2)cc1
6,> 50 µM (inactive),Cc1nn(C)c2c1[C@@H](c1ccc(F)c(Br)c1)[C@H](NC(=O)c1ccccc1)C(=O)N2
7,45.4 µM,O=C(Cc1cccc2ccccc12)Nc1nc2ccc(F)cc2s1
8,12.1 µM,O=c1[nH]c(C2CCN(S(=O)(=O)c3ccc(S(=O)(=O)NC4CCCCC4)cc3)CC2)nc2c1nnn2Cc1c(Cl)cccc1Cl
9,35.6 µM,CC(=O)c1cccc(NC(=O)c2ccc(N3CCCCC3)nn2)c1
10,1.71 µM,Cc1ccc(NC(=O)c2cnc3c(c2)c(=O)n(C)c(=O)n3C)cc1
11,45.3 µM,Cc1nc(-c2cccc(NC(=O)C3CCN(c4ccccc4)C3=O)c2)no1 (stereo not drawn)
12,> 50 µM (inactive),COc1cccc(N2CCN(C(=O)C3CCN(c4nc(NC(C)=O)ns4)CC3)CC2)c1
13,> 50 µM (inactive),CCc1nc2cc(NC(=O)c3cccc(N4CCCC4=O)c3)ccc2n1C
14,> 50 µM (inactive),Cc1ccccc1NC(=O)Cn1cc(-c2nc(C3CC3)no2)ccc1=O
15,33.8 µM,COC(=O)c1ccccc1NC(=O)CSc1nnc(-c2ccc(C(C)(C)C)cc2)n1C1CCCC1
16,42.7 µM,COc1ccc(NC(=O)C2CCCN(S(=O)(=O)N3CCCCCC3)C2)cc1 (stereo not drawn)
17,> 50 µM (inactive),Cc1ccccc1Cc1nc(-c2ccc(=O)[nH]c2)no1
18,> 50 µM (inactive),COc1ccc2nc(Nc3ncc4c(n3)CCCC4=O)nc(C)c2c1
19,2.81 µM,Cc1ccc2nc(NC(=O)CSc3nnc(-c4ccncc4)n3C3CC3)sc2c1
